Series [1] deals with recombinant human secreted phospholipase A2. Particulars: cited from earlier work.
The target is the same in series [2]. The conditions noted are these: guinea pig lung tissue; sPLA2 10 ug/ml; read-out: Tissue test secreted PLA2 Apparent KB; cited from earlier work.
A short description of series [3]: Monkey Pharmacokinetic Study (bioavailability). It counts as in vivo. Particulars: conclusion compared with other esters of the parent and the 2-methyl homolog, oral administration. The method, then: Plasma was assayed by HPLC to measure concentrations of the different sPLA2 inhibitors (measured as free acids).
Cmax (maximal plasma concentrations), and AUC values were determined from the mean plasma concentration-time profiles.

Broadly, the IC50 is the concentration needed to halve the response being measured.

Consider `CCc1c(C(=O)C(N)=O)c2c(OCC(=O)O)cccc2n1Cc1ccccc1` [formula (II), ((3-(2-amino-1,2-dioxoethyl)-2-ethyl-1-(phenylmethyl)-1H-indol-4-yl)oxy)acetic acid], for which the IC50 in series [1] (chromogenic assay, 3-4 tests, read-out: Inhibition of human secreted PLA2 IC50 ± mean deviation (3-4 tests)) was 9 ± 1.73 nM. Besides, the “inhibiting sPLA2 (conclusion in words)” value in series [1] (conclusion of Table I) is “highly active in inhibiting sPLA2”. The Kb in series [2] is 88.7 ± 18.2 nM.

For `CCc1c(C(=O)C(N)=O)c2c(OCC(=O)OCCN3CCOCC3)cccc2n1Cc1ccccc1` [Compound 1, ((3-(2-amino-1,2-dioxoethyl)-2-ethyl-1-(phenylmethyl)-1H-indol-4-yl)oxy)acetic acid morpholino-N-ethyl ester], the “bioavailability (in words)” value in series [3] was “unexpectedly more bioavailable than other esters of the parent sPLA2 inhibitor of formula II and also more bioavailable than the 2-methyl homolog of the parent sPLA2 inhibitor of formula II”; in series [3] (listed as formula (I)), “highly bioavailable upon oral administration compared to closely related ester type prodrugs”.

These data come from patent US6140327A, “Morpholino-n-ethyl ester derivative of an indole sPLA2 inhibitor” (Eli Lilly and Company, priority 1999, dated 2000).
